Assay results as given in patent publication US10842845B2, “Oxytocin improves treatment of obstructive sleep apnea” (THE GEORGE WASHINGTON UNIVERSITY, priority 2014, dated 2020).

System: DREADDs-expressing PVN OXT neurons
Assay: Whole-cell patch clamp of DREADDs-expressing PVN OXT neurons, CNO application
Assay type: cell-based, rat
Text: CVNs in NA and DMNX were identified by the presence of fluorescent tracer rhodamine and imaged using differential interference contrast optics and infrared illumination. Whole cell voltage clamp recordings from CVNs were done using Axopatch 200B and pClamp 8 software (Axon Instruments, Union city, USA), at a holding voltage of −80 mV at room temperature. The patch pipettes (2.5-5 MΩ) were filled with a solution consisting (in mM) of KCl (150), MgCl2 (4), EGTA (10), Na-ATP (2) and HEPES (10) or K-gluconic acid (150), HEPES (10), EGTA (10), MgCl2 (1) and CaCl2 (1) at a pH of 7.3 for recording inhibitory or excitatory events respectively. For PVN studies, forebrain slices were used for electrophysiology recordings.
A rat minimal oxytocin (OXT) promoter element from ˜530 bp to +33 relative to the origin of transcription of the OXT gene (UCSC genome browser on rat November 2004 assembly; chr3:118,193,690 to 118,194,252) was synthesized de novo and flanked by multiple cloning sites (Genscript, Piscataway, N.J.) (McCann et al., 2002; Petersson et al., 1996). […] Expression of these Cre-dependent vectors will only be initiated in neurons selectively expressing Cre as they contain silencing double-foxed inverse open reading frames (Sawchenko and Swanson, 1982). […]

C[N+]1([O-])CCN(C2=Nc3cc(Cl)ccc3Nc3ccccc32)CC1 [CNO, clozapine-n-oxide]
firing of PVN OXT neurons expressing DREADDs with CNO application (in words) (before CNO vs post CNO, 7 neurons): significantly increases
action potential firing frequency of DREADDs-expressing PVN neurons after CNO application (within 5 min of CNO application, from 0.19±0.05 Hz before CNO, n=7): 0.75±0.14 Hz
